Read-outs that look alike come from different tables or passages of the source.
Molecular target: PLK1 (Homo sapiens, UniProt P53350)
Assay: PLK1 protein kinase assay (CDC25C phosphorylation, [γ-32P]-ATP)
Assay type: biochemical
Conditions: for IC50: read-out: PLK1 IC50
[1] = Table 2, PLK1 IC50, class symbols

Chain of PLK1 (P53350 whole entry): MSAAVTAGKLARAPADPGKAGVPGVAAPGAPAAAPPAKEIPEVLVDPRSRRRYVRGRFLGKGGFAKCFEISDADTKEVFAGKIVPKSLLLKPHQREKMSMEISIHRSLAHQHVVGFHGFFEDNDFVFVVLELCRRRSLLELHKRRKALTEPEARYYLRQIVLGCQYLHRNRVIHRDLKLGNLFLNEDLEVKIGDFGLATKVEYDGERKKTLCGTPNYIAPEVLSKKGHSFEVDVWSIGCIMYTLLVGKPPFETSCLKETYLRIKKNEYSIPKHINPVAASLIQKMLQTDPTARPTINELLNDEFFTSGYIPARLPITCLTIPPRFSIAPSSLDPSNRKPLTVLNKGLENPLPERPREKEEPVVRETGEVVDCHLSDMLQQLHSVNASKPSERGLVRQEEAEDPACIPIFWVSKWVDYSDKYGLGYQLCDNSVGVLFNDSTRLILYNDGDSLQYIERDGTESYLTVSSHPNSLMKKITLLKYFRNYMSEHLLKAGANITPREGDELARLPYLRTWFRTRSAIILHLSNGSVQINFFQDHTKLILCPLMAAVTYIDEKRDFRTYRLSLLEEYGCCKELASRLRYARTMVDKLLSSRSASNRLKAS

| SMILES | IC50 (Table 3) | Ki (Table 6) | IC50 [1] |
| --- | --- | --- | --- |
| COc1cc(C(=O)NC2CN3CCC2CC3)ccc1Nc1ncc2c(n1)N(C1CCCC1)CC1(CC1)C(=O)N2C (racemic) [Compound 186, (±)-4-(9′-cyclopentyl-5′-methyl-6′-oxo-5′,6′,8′,9′-tetrahydrospiro[cyclopropane-1,7′-pyrimido[4,5-b][1,4]diazepine]-2′-ylamino)-3-methoxy-N-(quinuclidin-3-yl)benzamide] | < 100 nM | – | < 100 nM |
| COc1cc(C(=O)NC2CN3CCC2CC3)ccc1Nc1ncc2c(n1)N(C1CCCC1)CC(C)(C)C(=O)N2C (racemic) [Compound 194, (±)-4-(9-cyclopentyl-5,7,7-trimethyl-6-oxo-6,7,8,9-tetrahydro-5H-pyrimido[4,5-b][1,4]diazepin-2-ylamino)-3-methoxy-N-(quinuclidin-3-yl)benzamide] | < 100 nM | – | < 100 nM |
| COc1cc(C(=O)NN2CCN(C)CC2)ccc1Nc1ncc2c(n1)N(C1CCCC1)CC1(CCC1)C(=O)N2C [Compound 221, 4-(9′-cyclopentyl-5′-methyl-6′-oxo-5′,6′,8′,9′-tetrahydrospiro[cyclobutane-1,7′-pyrimido[4,5-b][1,4]diazepine]-2′-ylamino)-3-methoxy-N-(4-methylpiperazin-1-yl)benzamide] | < 100 nM | – | < 100 nM |
| COc1cc(C(=O)N[C@H]2CN3CCC2CC3)ccc1Nc1ncc2c(n1)N(C1CCCC1)CC1(CC1)C(=O)N2C [Compound 347, (R)-4-(9′-cyclopentyl-5′-methyl-6′-oxo-5′,6′,8′,9′-tetrahydrospiro[cyclopropane-1,7′-pyrimido[4,5-b][1,4]diazepine]-2′-ylamino)-3-methoxy-N-(quinuclidin-3-yl)benzamide] | < 100 nM | – | < 100 nM |
| COc1cc(C(=O)N[C@@H]2CN3CCC2CC3)ccc1Nc1ncc2c(n1)N(C1CCCC1)CC1(CC1)C(=O)N2C [Compound 348, (S)-4-(9′-cyclopentyl-5′-methyl-6′-oxo-5′,6′,8′,9′-tetrahydrospiro[cyclopropane-1,7′-pyrimido[4,5-b][1,4]diazepine]-2′-ylamino)-3-methoxy-N-(quinuclidin-3-yl)benzamide] | < 100 nM | – | < 100 nM |
| COc1cc(C(=O)NN2CCOCC2)ccc1Nc1ncc2c(n1)N(C1CCCC1)CC1(CC1)C(=O)N2C [Compound 376, 4-(9′-Cyclopentyl-5′-methyl-6′-oxo-5′,6′,8′,9′-tetrahydrospiro[cyclopropane-1,7′-pyrimido[4,5-b][1,4]diazepine]-2′-ylamino)-3-methoxy-N-morpholinobenzamide] | < 100 nM | – | – |
| COc1cc(C(=O)N[C@H]2CC[C@H](N3CCN(CC4CC4)CC3)CC2)ccc1Nc1ncc2c(n1)N(C1CCCC1)CCC(=O)N2C [Compound 378, 4-(9-cyclopentyl-5-methyl-6-oxo-6,7,8,9-tetrahydro-5H-pyrimido[4,5-b][1,4]diazepin-2-ylamino)-N-((trans)-4-(4-(cyclopropylmethyl)piperazin-1-yl)cyclohexyl)-3-methoxybenzamide] | < 100 nM | – | – |
| CCN1CCN([C@H]2CC[C@H](NC(=O)c3ccc(Nc4ncc5c(n4)N(C4CCCC4)CC4(CC4)C(=O)N5C)c(OC)c3)CC2)CC1 [Compound 379, 4-(9′-cyclopentyl-5′-methyl-6′-oxo-5′,6′,8′,9′-tetrahydrospiro[cyclopropane-1,7′-pyrimido[4,5-b][1,4]diazepine]-2′-ylamino)-N-((trans)-4-(4-ethylpiperazin-1-yl)cyclohexyl)-3-methoxybenzamide] | < 100 nM | – | – |
| COc1cc(C(=O)N[C@H]2CC[C@H](N3CCN(C)CC3)CC2)ccc1Nc1ncc2c(n1)N(C1CCCC1)CC1(CC1)C(=O)N2C [Compound 384, 4-(9′-cyclopentyl-5′-methyl-6′-oxo-5′,6′,8′,9′-tetrahydrospiro[cyclopropane-1,7′-pyrimido[4,5-b][1,4]diazepine]-2′-ylamino)-N-((trans)-4-(4-methylpiperazin-1-yl)cyclohexyl)-3-methoxybenzamide] | < 100 nM | – | – |
| COc1cc(C(=O)N[C@H]2CC[C@@H](N3CCN(C)CC3)CC2)ccc1Nc1ncc2c(n1)N(C1CCCC1)CC1(CC1)C(=O)N2C [Compound 385, 4-(9′-cyclopentyl-5′-methyl-6′-oxo-5′,6′,8′,9′-tetrahydrospiro[cyclopropane-1,7′-pyrimido[4,5-b][1,4]diazepine]-2′-ylamino)-N-((cis)-4-(4-methylpiperazin-1-yl)cyclohexyl)-3-methoxybenzamide] | < 100 nM | – | – |

Now from value to molecule, other results behind:

| IC50 (Table 3) | Ki (Table 6) | SMILES | IC50 [1] |
| --- | --- | --- | --- |
| < 100 nM | – | COc1cc(C(=O)NN2CCN(C)CC2)ccc1Nc1ncc2c(n1)N(C1CCCC1)CC(C)(C)C(=O)N2C [Compound 195, 4-(9-Cyclopentyl-5,7,7-trimethyl-6-oxo-6,7,8,9-tetrahydro-5H-pyrimido[4,5-b][1,4]diazepin-2-ylamino)-3-methoxy-N-(4-methyl-piperazin-1-yl)-benzamide] | < 100 nM |
| < 100 nM | < 10 nM | COc1cc(C(=O)NN2CCN(C)CC2)ccc1Nc1ncc2c(n1)N(C1CCCC1)CC1(CC1)C(=O)N2C [Compound 254, 4-(9′-cyclopentyl-5′-methyl-6′-oxo-5′,6′,8′,9′-tetrahydrospiro[cyclopropane-1,7′-pyrimido[4,5-b][1,4]diazepine]-2′-ylamino)-3-methoxy-N-(4-methylpiperazin-1-yl)benzamide] | < 100 nM |
| < 100 nM | – | COc1cc(C(=O)NC2CCN(C3CCOCC3)CC2)ccc1Nc1ncc2c(n1)N(C1CCCC1)CCC(=O)N2C [Compound 345, 4-(9-Cyclopentyl-5-methyl-6-oxo-6,7,8,9-tetrahydro-5H-pyrimido[4,5-b][1,4]diazepin-2-ylamino)-3-methoxy-N-[1-(tetrahydro-pyran-4-yl)-piperidin-4-yl]-benzamide] | < 100 nM |
| < 100 nM | – | COc1cc(C(=O)N[C@H]2CC[C@H](N3CCN(CC4CC4)CC3)CC2)ccc1Nc1ncc2c(n1)N(C1CCCC1)CC1(CC1)C(=O)N2C [Compound 371, 4-(9′-cyclopentyl-5′-methyl-6′-oxo-5′,6′,8′,9′-tetrahydrospiro[cyclopropane-1,7′-pyrimido[4,5-b][1,4]diazepine]-2′-ylamino)-N-((trans)-4-(4-(cyclopropylmethyl)piperazin-1-yl)cyclohexyl)-3-methoxybenzamide] | – |
| < 100 nM | – | CN1CCN(NC(=O)c2ccc(Nc3ncc4c(n3)N(C3CCCC3)CC3(CCC3)C(=O)N4C)c(F)c2)CC1 [Compound 373, 4-(9′-cyclopentyl-5′-methyl-6′-oxo-5′,6′,8′,9′-tetrahydrospiro[cyclobutane-1,7′-pyrimido[4,5-b][1,4]diazepine]-2′-ylamino)-3-fluoro-N-(4-methylpiperazin-1-yl)benzamide] | – |
| < 100 nM | – | CN1CCN(NC(=O)c2ccc(Nc3ncc4c(n3)N(C3CCCC3)CC3(CC3)C(=O)N4C)c(F)c2)CC1 [Compound 374, 4-(9′-Cyclopentyl-5′-methyl-6′-oxo-5′,6′,8′,9′-tetrahydrospiro[cyclopropane-1,7′-pyrimido[4,5-b][1,4]diazepine]-2′-ylamino)-3-fluoro-N-(4-methylpiperazin-1-yl)benzamide] | – |
| < 100 nM | – | COc1cc(C(=O)NN2CCN(CCO)CC2)ccc1Nc1ncc2c(n1)N(C1CCCC1)CC1(CC1)C(=O)N2C [Compound 375, 4-(9′-Cyclopentyl-5′-methyl-6′-oxo-5′,6′,8′,9′-tetrahydrospiro[cyclopropane-1,7′-pyrimido[4,5-b][1,4]diazepine]-2′-ylamino)-N-(4-(2-hydroxyethyl)piperazin-1-yl)-3-methoxybenzamide] | – |
| < 100 nM | – | COc1cc(C(=O)N[C@H]2CC[C@H](N3CCN(CC4CC4)CC3)CC2)ccc1Nc1ncc2c(n1)N(C1CCCC1)CC1(CCC1)C(=O)N2C [Compound 377, 4-(9′-cyclopentyl-5′-methyl-6′-oxo-5′,6′,8′,9′-tetrahydrospiro[cyclobutane-1,7′-pyrimido[4,5-b][1,4]diazepine]-2′-ylamino)-N-((trans)-4-(4-(cyclopropylmethyl)piperazin-1-yl)cyclohexyl)-3-methoxybenzamide] | – |
| < 100 nM | – | CCN1CCN([C@H]2CC[C@@H](NC(=O)c3ccc(Nc4ncc5c(n4)N(C4CCCC4)CC4(CC4)C(=O)N5C)c(OC)c3)CC2)CC1 [Compound 380, 4-(9′-cyclopentyl-5′-methyl-6′-oxo-5′,6′,8′,9′-tetrahydrospiro[cyclopropane-1,7′-pyrimido[4,5-b][1,4]diazepine]-2′-ylamino)-N-((cis)-4-(4-ethylpiperazin-1-yl)cyclohexyl)-3-methoxybenzamide] | – |
| < 100 nM | – | COc1cc(C(=O)NC2CCC(N3CCCN(CC4CC4)CC3)CC2)ccc1Nc1ncc2c(n1)N(C1CCCC1)CC1(CC1)C(=O)N2C (centres unmarked) [Compound 381, 4-(9′-cyclopentyl-5′-methyl-6′-oxo-5′,6′,8′,9′-tetrahydrospiro[cyclopropane-1,7′-pyrimido[4,5-b][1,4]diazepine]-2′-ylamino)-N-(4-(4-(cyclopropylmethyl)-1,4-diazepan-1-yl)cyclohexyl)-3-methoxybenzamide] | – |
| < 100 nM | – | CCN1CCCN(C2CCC(NC(=O)c3ccc(Nc4ncc5c(n4)N(C4CCCC4)CC4(CC4)C(=O)N5C)c(OC)c3)CC2)CC1 (centres unmarked) [Compound 382, 4-(9′-cyclopentyl-5′-methyl-6′-oxo-5′,6′,8′,9′-tetrahydrospiro[cyclopropane-1,7′-pyrimido[4,5-b][1,4]diazepine]-2′-ylamino)-N-(4-(4-ethyl-1,4-diazepan-1-yl)cyclohexyl)-3-methoxybenzamide] | – |
| 100 to 1000 nM | – | COc1cc(C(=O)NC2CCC(N3CCCN(Cc4ccccc4)CC3)CC2)ccc1Nc1ncc2c(n1)N(C1CCCC1)CC1(CC1)C(=O)N2C (centres unmarked) [Compound 383, N-(4-(4-benzyl-1,4-diazepan-1-yl)cyclohexyl)-4-(9′-cyclopentyl-5′-methyl-6′-oxo-5′,6′,8′,9′-tetrahydrospiro[cyclopropane-1,7′-pyrimido[4,5-b][1,4]diazepine]-2′-ylamino)-3-methoxybenzamide] | – |
| < 100 nM | – | COc1cc(C(=O)N[C@H]2CC[C@H](N3CCN(Cc4ccccc4)CC3)CC2)ccc1Nc1ncc2c(n1)N(C1CCCC1)CC1(CC1)C(=O)N2C [Compound 386, N-((trans)-4-(4-benzylpiperazin-1-yl)cyclohexyl)-4-(9′-cyclopentyl-5′-methyl-6′-oxo-5′,6′,8′,9′-tetrahydrospiro[cyclopropane-1,7′-pyrimido[4,5-b][1,4]diazepine]-2′-ylamino)-3-methoxybenzamide] | – |

From patent US8563542B2 (Cyclacel Limited, priority 2007, dated 2013)
